The values below are quoted from earlier work in patent publication US20030104085A1, “Methods and compositions for treating back pain” (priority 2001, published 2003).

One series deals with rats. Conditions: subcutaneous and epidural administration; cited from earlier work.
Series [1] deals with nerve endings in the skin. As to conditions: topical administration; cited from earlier work.

On to `C=C(C)[C@]12C[C@@H](C)[C@@]34O[C@](Cc5ccccc5)(O[C@@H]1[C@@H]3C=C(COC(=O)Cc1ccc(O)c(OC)c1)C[C@]1(O)C(=O)C(C)=C[C@@H]41)O2` [RTX, resiniferatoxin], for which, in the series on rats, the thermal analgesia result is listed as “produce thermal analgesia” and the “time without restoration of pain sensitivity” value is “over 7 days”. Also, the “sensitivity to chemical pain stimulation” value in series [1] was “long-lasting insensitivity to chemical pain stimulation”.
